How the values were obtained:
[1] = target: T1, CK1α (Homo sapiens, UniProt P48729+Q96SW2); test: Western blot, degradation of substrate protein in hPBMCs; type: cell-based; settings: 24 hours treatment, compounds at 50 nM and 500 nM (concentration behind the class not stated)
T1 construct: effects of the compounds of the present disclosure on the expression of target proteins in cells; endogenous in cells; host or cells: human PBMCs (Milecell Biotechnologies)

[2] = target: T2, IKZF1 (Homo sapiens, UniProt Q13422+Q96SW2); test: as above; type: cell-based; settings: 24 hours treatment, compounds at 50 nM and 500 nM (concentration behind the class not stated)
T2 construct: effects of the compounds of the present disclosure on the expression of target proteins in cells; endogenous in cells; host or cells: human PBMCs (Milecell Biotechnologies)
T2 sequence (Q13422 whole entry): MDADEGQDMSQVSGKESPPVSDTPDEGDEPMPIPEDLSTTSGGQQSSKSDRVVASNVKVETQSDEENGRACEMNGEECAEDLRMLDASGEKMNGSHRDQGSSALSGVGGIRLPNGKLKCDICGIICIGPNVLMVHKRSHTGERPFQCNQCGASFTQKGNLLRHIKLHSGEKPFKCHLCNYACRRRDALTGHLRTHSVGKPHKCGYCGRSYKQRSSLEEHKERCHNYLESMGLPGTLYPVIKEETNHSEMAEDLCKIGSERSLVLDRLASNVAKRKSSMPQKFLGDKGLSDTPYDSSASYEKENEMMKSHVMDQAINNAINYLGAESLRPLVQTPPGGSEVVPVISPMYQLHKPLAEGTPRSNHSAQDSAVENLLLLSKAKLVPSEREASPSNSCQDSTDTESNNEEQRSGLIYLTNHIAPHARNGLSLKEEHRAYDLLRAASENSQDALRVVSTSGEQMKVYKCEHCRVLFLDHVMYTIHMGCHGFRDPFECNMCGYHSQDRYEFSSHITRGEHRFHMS
T2 sequence (Q96SW2 whole entry): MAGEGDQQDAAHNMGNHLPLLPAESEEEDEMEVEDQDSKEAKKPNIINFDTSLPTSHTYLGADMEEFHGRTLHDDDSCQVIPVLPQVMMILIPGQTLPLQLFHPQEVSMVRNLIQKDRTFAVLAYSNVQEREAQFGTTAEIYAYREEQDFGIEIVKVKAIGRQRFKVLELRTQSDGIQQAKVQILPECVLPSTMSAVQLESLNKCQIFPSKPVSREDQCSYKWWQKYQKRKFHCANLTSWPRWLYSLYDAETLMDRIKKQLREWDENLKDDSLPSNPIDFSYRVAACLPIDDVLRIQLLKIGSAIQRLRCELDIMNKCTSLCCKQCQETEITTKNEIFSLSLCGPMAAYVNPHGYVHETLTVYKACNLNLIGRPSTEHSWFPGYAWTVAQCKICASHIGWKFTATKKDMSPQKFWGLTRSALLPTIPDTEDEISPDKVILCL
T2 sequence (Q16531 whole entry partner): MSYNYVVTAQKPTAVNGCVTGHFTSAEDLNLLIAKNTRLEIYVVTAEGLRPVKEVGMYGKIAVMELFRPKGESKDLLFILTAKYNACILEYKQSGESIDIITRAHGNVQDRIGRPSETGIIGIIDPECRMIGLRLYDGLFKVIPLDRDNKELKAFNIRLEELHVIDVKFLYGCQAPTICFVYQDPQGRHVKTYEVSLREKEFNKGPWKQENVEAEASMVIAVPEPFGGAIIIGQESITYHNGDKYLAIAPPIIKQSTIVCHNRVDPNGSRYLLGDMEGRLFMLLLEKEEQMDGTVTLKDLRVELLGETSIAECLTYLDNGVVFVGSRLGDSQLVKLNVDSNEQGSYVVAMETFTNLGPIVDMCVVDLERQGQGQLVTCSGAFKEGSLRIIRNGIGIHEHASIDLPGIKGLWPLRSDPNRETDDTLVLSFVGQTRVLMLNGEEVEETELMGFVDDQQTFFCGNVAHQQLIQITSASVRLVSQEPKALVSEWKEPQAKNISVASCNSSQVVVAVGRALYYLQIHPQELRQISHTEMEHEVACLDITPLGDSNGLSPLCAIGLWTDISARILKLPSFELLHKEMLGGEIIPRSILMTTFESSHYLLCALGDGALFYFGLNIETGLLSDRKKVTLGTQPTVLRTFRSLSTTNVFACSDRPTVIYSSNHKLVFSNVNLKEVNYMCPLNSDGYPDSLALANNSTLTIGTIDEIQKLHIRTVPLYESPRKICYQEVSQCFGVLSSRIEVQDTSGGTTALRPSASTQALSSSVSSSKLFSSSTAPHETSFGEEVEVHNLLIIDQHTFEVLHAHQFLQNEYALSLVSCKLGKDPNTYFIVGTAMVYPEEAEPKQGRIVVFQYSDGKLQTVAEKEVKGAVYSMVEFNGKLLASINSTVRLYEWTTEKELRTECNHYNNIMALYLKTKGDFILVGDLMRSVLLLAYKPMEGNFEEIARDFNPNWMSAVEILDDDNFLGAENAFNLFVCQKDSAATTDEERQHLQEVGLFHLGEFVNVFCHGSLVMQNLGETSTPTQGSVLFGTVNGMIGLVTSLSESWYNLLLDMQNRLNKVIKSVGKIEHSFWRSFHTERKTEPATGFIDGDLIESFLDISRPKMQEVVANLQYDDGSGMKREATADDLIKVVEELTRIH

[3] = target: T3, IKZF2 (Homo sapiens, UniProt Q96SW2+Q9UKS7); test: as above; type: cell-based; settings: 24 hours treatment, compounds at 50 nM and 500 nM (concentration behind the class not stated)
T3 construct: effects of the compounds of the present disclosure on the expression of target proteins in cells; endogenous in cells; host or cells: human PBMCs (Milecell Biotechnologies)
T3 sequence (Q9UKS7 whole entry): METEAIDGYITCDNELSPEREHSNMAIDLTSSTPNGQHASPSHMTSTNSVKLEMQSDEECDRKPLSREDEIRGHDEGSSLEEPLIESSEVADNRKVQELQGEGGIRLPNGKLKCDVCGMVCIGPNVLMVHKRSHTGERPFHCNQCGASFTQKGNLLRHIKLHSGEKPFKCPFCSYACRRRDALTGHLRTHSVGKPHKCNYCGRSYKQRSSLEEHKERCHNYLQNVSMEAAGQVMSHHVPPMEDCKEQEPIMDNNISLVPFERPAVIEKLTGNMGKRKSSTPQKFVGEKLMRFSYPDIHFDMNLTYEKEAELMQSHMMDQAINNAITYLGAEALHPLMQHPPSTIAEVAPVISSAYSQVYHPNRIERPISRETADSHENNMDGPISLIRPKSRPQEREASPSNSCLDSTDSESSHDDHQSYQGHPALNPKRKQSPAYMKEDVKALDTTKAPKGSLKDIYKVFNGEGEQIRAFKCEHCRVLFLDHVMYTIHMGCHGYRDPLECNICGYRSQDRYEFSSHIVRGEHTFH
T3 sequence (Q96SW2 whole entry): as the sequence (Q96SW2 whole entry) above
T3 sequence (Q16531 whole entry partner): as the sequence (Q16531 whole entry partner) above

[4] = target: T4, IKZF3 (Homo sapiens, UniProt Q96SW2+Q9UKT9); test: as above; type: cell-based; settings: 24 hours treatment, compounds at 50 nM and 500 nM (concentration behind the class not stated)
T4 construct: effects of the compounds of the present disclosure on the expression of target proteins in cells; endogenous in cells; host or cells: human PBMCs (Milecell Biotechnologies)
T4 sequence (Q9UKT9 whole entry): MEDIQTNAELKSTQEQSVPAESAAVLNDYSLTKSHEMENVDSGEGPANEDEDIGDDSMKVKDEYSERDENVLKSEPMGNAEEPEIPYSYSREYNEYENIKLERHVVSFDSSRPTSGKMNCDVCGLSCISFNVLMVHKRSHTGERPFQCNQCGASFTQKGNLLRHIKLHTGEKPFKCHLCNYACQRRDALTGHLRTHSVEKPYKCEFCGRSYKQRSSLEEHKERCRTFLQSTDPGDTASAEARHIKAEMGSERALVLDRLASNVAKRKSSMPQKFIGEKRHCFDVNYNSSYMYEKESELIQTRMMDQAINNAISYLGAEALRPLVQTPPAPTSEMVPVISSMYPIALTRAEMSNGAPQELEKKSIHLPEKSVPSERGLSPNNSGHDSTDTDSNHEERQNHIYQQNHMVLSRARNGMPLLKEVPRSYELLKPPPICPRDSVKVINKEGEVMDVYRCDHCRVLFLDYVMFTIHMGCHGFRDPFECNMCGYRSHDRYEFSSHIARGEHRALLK
T4 sequence (Q96SW2 whole entry): as the sequence (Q96SW2 whole entry) above
T4 sequence (Q16531 whole entry partner): as the sequence (Q16531 whole entry partner) above

[5] = target: T5, WEE1 (Homo sapiens, UniProt P30291+Q96SW2); test: as above; type: cell-based; settings: 24 hours treatment, compounds at 50 nM and 500 nM (concentration behind the class not stated)
T5 construct: effects of the compounds of the present disclosure on the expression of target proteins in cells; endogenous in cells; host or cells: human PBMCs (Milecell Biotechnologies)
T5 sequence (P30291 whole entry): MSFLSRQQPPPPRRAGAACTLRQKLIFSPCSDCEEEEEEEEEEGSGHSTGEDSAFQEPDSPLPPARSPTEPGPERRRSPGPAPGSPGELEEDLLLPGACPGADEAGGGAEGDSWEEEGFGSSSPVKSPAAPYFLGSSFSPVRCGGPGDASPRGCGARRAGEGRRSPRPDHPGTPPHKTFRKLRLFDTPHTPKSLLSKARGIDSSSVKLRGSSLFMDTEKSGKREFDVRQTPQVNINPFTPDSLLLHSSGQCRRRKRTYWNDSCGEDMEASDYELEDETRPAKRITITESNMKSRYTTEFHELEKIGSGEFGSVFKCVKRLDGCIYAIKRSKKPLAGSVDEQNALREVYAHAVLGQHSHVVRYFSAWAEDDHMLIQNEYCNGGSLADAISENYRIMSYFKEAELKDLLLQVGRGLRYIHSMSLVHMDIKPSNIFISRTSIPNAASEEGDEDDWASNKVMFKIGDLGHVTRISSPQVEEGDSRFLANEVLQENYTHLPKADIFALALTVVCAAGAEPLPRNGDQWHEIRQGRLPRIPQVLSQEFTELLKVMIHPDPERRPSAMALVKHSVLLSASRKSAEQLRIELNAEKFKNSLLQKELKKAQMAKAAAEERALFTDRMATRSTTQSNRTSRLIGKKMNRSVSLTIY
T5 sequence (Q96SW2 whole entry): as the sequence (Q96SW2 whole entry) above
T5 sequence (Q16531 whole entry partner): as the sequence (Q16531 whole entry partner) above

[6] = tested on: GSPT1; test: as above; type: cell-based, Human; settings: 24 hours treatment, compounds at 50 nM and 500 nM (concentration behind the class not stated)
[7] = target: T6, human Cereblon WT GST-tagged protein (Homo sapiens, UniProt Q96SW2); test: CRBN-binding affinity, HTRF (CEREBLON BINDING kit); settings: for inhibition at 0.5 µM: read-out: Inhibition Rate at 0.5 µM (%); for inhibition at 2 µM: read-out: Inhibition Rate at 2 µM (%)
T6 construct: purchased CISBIO 64BDCRBNPEH
T6 sequence (Q96SW2 whole entry): as the sequence (Q96SW2 whole entry) above

T1 sequence (P48729 whole entry): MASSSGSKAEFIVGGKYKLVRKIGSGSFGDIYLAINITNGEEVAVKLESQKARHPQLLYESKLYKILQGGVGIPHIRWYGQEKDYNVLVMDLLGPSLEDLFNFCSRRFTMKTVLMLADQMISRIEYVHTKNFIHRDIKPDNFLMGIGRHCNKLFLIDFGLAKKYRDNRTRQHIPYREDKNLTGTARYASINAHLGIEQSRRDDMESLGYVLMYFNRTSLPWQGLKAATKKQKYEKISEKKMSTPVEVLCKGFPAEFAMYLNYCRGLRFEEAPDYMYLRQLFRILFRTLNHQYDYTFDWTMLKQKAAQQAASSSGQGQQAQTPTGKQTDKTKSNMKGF
T1 sequence (Q96SW2 whole entry): as the sequence (Q96SW2 whole entry) above
T1 sequence (Q16531 whole entry partner): as the sequence (Q16531 whole entry partner) above

In the case of `O=C1CCC(N2Cc3c(CN4CCC(c5ncnc6scc(-c7ccccc7)c56)CC4)cccc3C2=S)C(=O)N1` (centres unmarked) [GT-08930, 3-(4-((4-(5-phenylthieno[2,3-d]pyrimidin-4-yl)piperidin-1-yl)methyl)-1-thioxoisoindolin-2-yl)piperidine-2,6-dione], the “CK1α substrate protein remaining %” value [1] is reported as “B (80%< substrate protein remaining %≤ 100%)”, the “IKZF 1 substrate protein remaining %” value [2] is reported as “B (80%< substrate protein remaining %≤ 100%)” and the “IKZF2 substrate protein remaining %” value [3] is reported as “B (80%< substrate protein remaining %≤ 100%)”. The “IKZF3 substrate protein remaining %” value [4] was “B (80%< substrate protein remaining %≤ 100%)”, the “Wee1 substrate protein remaining %” value [5] was “A (0% ≤ substrate protein remaining % ≤ 80%)” and the “GSPT1 substrate protein remaining %” value [6] was “B (80%< substrate protein remaining %≤ 100%)”. For the same compound, the inhibition at 0.5 µM [7] was 53 to 60% and the inhibition at 2 µM [7] was 80 to 100%.

For `Cc1nc(C2CCN(Cc3cccc4c3CN(C3CCC(=O)NC3=O)C4=S)CC2)c2ccsc2n1` (centres unmarked) [GT-08932, 3-(4-((4-(2-methylthieno[2,3-d]pyrimidin-4-yl)piperidin-1-yl)methyl)-1-thioxoisoindolin-2-yl)piperidine-2,6-dione], the “CK1α substrate protein remaining %” value [1] was “B (80%< substrate protein remaining %≤ 100%)”, the “IKZF 1 substrate protein remaining %” value [2] was “B (80%< substrate protein remaining %≤ 100%)” and the “IKZF2 substrate protein remaining %” value [3] was “B (80%< substrate protein remaining %≤ 100%)”. For the same compound, the “IKZF3 substrate protein remaining %” value [4] was “B (80%< substrate protein remaining %≤ 100%)”, the “Wee1 substrate protein remaining %” value [5] was “A (0% ≤ substrate protein remaining % ≤ 80%)” and the “GSPT1 substrate protein remaining %” value [6] was “B (80%< substrate protein remaining %≤ 100%)”. It also gave an inhibition at 0.5 µM [7] of 60 to 80% and an inhibition at 2 µM [7] of 80 to 100%.

In the case of `Cc1nc(C2CCN(Cc3cccc4c3CN(C3CCC(=O)NC3=O)C4=S)CC2)c2c3c(sc2n1)CCCC3` (centres unmarked) [GT-08933, 3-(4-((4-(2-methyl-5,6,7,8-tetrahydrobenzo[4,5]thieno[2,3-d]pyrimidin-4-yl)piperidin-1-yl)methyl)-1-thioxoisoindolin-2-yl)piperidine-2,6-dione], the “CK1α substrate protein remaining %” value [1] is reported as “B (80%< substrate protein remaining %≤ 100%)”, the “IKZF 1 substrate protein remaining %” value [2] is reported as “A (0% ≤ substrate protein remaining % ≤ 80%)” and the “IKZF2 substrate protein remaining %” value [3] is reported as “B (80%< substrate protein remaining %≤ 100%)”. For the same compound, the “IKZF3 substrate protein remaining %” value [4] was “B (80%< substrate protein remaining %≤ 100%)”, the “Wee1 substrate protein remaining %” value [5] was “A (0% ≤ substrate protein remaining % ≤ 80%)” and the “GSPT1 substrate protein remaining %” value [6] was “A (0% ≤ substrate protein remaining % ≤ 80%)”. It also gave an inhibition at 0.5 µM [7] of 53 to 60% and an inhibition at 2 µM [7] of 60 to 80%.

In the case of `Cc1nc(C2CCN(Cc3cccc4c3CN(C3CCC(=O)NC3=O)C4=S)CC2)c2c3c(sc2n1)CCC3` (centres unmarked) [GT-08935, 3-(4-((4-(2-methyl-6,7-dihydro-5H-cyclopenta[4,5]thieno[2,3-d]pyrimidin-4-yl)piperidin-1-yl)methyl)-1-thioxoisoindolin-2-yl)piperidine-2,6-dione], the “CK1α substrate protein remaining %” value [1] is reported as “B (80%< substrate protein remaining %≤ 100%)”, the “IKZF 1 substrate protein remaining %” value [2] is reported as “A (0% ≤ substrate protein remaining % ≤ 80%)” and the “IKZF2 substrate protein remaining %” value [3] is reported as “B (80%< substrate protein remaining %≤ 100%)”. The “IKZF3 substrate protein remaining %” value [4] was “A (0% ≤ substrate protein remaining % ≤ 80%)”, the “Wee1 substrate protein remaining %” value [5] was “A (0% ≤ substrate protein remaining % ≤ 80%)” and the “GSPT1 substrate protein remaining %” value [6] was “A (0% ≤ substrate protein remaining % ≤ 80%)”. It also gave an inhibition at 0.5 µM [7] of 60 to 80% and an inhibition at 2 µM [7] of 80 to 100%.

For `O=C1CCC(N2Cc3c(CN4CCC(c5ncc6ccsc6n5)CC4)cccc3C2=S)C(=O)N1` (centres unmarked) [GT-08936, 3-(4-((4-(thieno[2,3-d]pyrimidin-2-yl)piperidin-1-yl)methyl)-1-thioxoisoindolin-2-yl)piperidine-2,6-dione], the “CK1α substrate protein remaining %” value [1] was “B (80%< substrate protein remaining %≤ 100%)”, the “IKZF 1 substrate protein remaining %” value [2] was “A (0% ≤ substrate protein remaining % ≤ 80%)” and the “IKZF2 substrate protein remaining %” value [3] was “B (80%< substrate protein remaining %≤ 100%)”. The “IKZF3 substrate protein remaining %” value [4] was “B (80%< substrate protein remaining %≤ 100%)”, the “Wee1 substrate protein remaining %” value [5] was “A (0% ≤ substrate protein remaining % ≤ 80%)” and the “GSPT1 substrate protein remaining %” value [6] was “A (0% ≤ substrate protein remaining % ≤ 80%)”. For the same compound, the inhibition at 0.5 µM [7] was 60 to 80% and the inhibition at 2 µM [7] was 80 to 100%.

In the case of `CC(C)c1cc2c(C3=CCN(Cc4cccc5c4CN(C4CCC(=O)NC4=O)C5=S)CC3)ncnc2s1` (centres unmarked) [GT-08954, 3-(4-((4-(6-isopropylthieno[2,3-d]pyrimidin-4-yl)-3,6-dihydropyridin-1(2H)-yl)methyl)-1-thioxoisoindolin-2-yl)piperidine-2,6-dione], the “CK1α substrate protein remaining %” value [1] is reported as “B (80%< substrate protein remaining %≤ 100%)”, the “IKZF 1 substrate protein remaining %” value [2] is reported as “B (80%< substrate protein remaining %≤ 100%)” and the “IKZF2 substrate protein remaining %” value [3] is reported as “B (80%< substrate protein remaining %≤ 100%)”. For the same compound, the “IKZF3 substrate protein remaining %” value [4] was “B (80%< substrate protein remaining %≤ 100%)”, the “Wee1 substrate protein remaining %” value [5] was “A (0% ≤ substrate protein remaining % ≤ 80%)” and the “GSPT1 substrate protein remaining %” value [6] was “A (0% ≤ substrate protein remaining % ≤ 80%)”. For the same compound, the inhibition at 0.5 µM [7] was 40 to 53% and the inhibition at 2 µM [7] was 60 to 80%.

For `Cc1sc2ncnc(C3=CCN(Cc4cccc5c4CN(C4CCC(=O)NC4=O)C5=S)CC3)c2c1C` (centres unmarked) [GT-08955, 3-(4-((4-(5,6-dimethylthieno[2,3-d]pyrimidin-4-yl)-3,6-dihydropyridin-1(2H)-yl)methyl)-1-thioxoisoindolin-2-yl)piperidine-2,6-dione], the “CK1α substrate protein remaining %” value [1] was “B (80%< substrate protein remaining %≤ 100%)”, the “IKZF 1 substrate protein remaining %” value [2] was “B (80%< substrate protein remaining %≤ 100%)” and the “IKZF2 substrate protein remaining %” value [3] was “B (80%< substrate protein remaining %≤ 100%)”. For the same compound, the “IKZF3 substrate protein remaining %” value [4] was “B (80%< substrate protein remaining %≤ 100%)”, the “Wee1 substrate protein remaining %” value [5] was “A (0% ≤ substrate protein remaining % ≤ 80%)” and the “GSPT1 substrate protein remaining %” value [6] was “B (80%< substrate protein remaining %≤ 100%)”. For the same compound, the inhibition at 0.5 µM [7] was 40 to 53% and the inhibition at 2 µM [7] was 60 to 80%.

For `O=C1CCC(N2Cc3c(CN4CC=C(c5ncnc6scc(-c7ccccc7)c56)CC4)cccc3C2=S)C(=O)N1` (centres unmarked) [GT-08957, 3-(4-((4-(5-phenylthieno[2,3-d]pyrimidin-4-yl)-3,6-dihydropyridin-1(2H)-yl)methyl)-1-thioxoisoindolin-2-yl)piperidine-2,6-dione], the “CK1α substrate protein remaining %” value [1] was “B (80%< substrate protein remaining %≤ 100%)”, the “IKZF 1 substrate protein remaining %” value [2] was “B (80%< substrate protein remaining %≤ 100%)” and the “IKZF2 substrate protein remaining %” value [3] was “B (80%< substrate protein remaining %≤ 100%)”. The “IKZF3 substrate protein remaining %” value [4] was “B (80%< substrate protein remaining %≤ 100%)”, the “Wee1 substrate protein remaining %” value [5] was “A (0% ≤ substrate protein remaining % ≤ 80%)” and the “GSPT1 substrate protein remaining %” value [6] was “B (80%< substrate protein remaining %≤ 100%)”. It also gave an inhibition at 0.5 µM [7] of 60 to 80% and an inhibition at 2 µM [7] of 80 to 100%.

With `Cc1nc(C2=CCN(Cc3cccc4c3CN(C3CCC(=O)NC3=O)C4=S)CC2)c2c(-c3ccccc3)csc2n1` (centres unmarked) [GT-08958, 3-(4-((4-(2-methyl-5-phenylthieno[2,3-d]pyrimidin-4-yl)-3,6-dihydropyridin-1(2H)-yl)methyl)-1-thioxoisoindolin-2-yl)piperidine-2,6-dione] the “CK1α substrate protein remaining %” value [1] was “B (80%< substrate protein remaining %≤ 100%)”, the “IKZF 1 substrate protein remaining %” value [2] was “B (80%< substrate protein remaining %≤ 100%)” and the “IKZF2 substrate protein remaining %” value [3] was “B (80%< substrate protein remaining %≤ 100%)”. For the same compound, the “IKZF3 substrate protein remaining %” value [4] was “B (80%< substrate protein remaining %≤ 100%)”, the “Wee1 substrate protein remaining %” value [5] was “A (0% ≤ substrate protein remaining % ≤ 80%)” and the “GSPT1 substrate protein remaining %” value [6] was “B (80%< substrate protein remaining %≤ 100%)”. The inhibition at 0.5 µM [7] was 60 to 80% and the inhibition at 2 µM [7] was 80 to 100%.

For `Cc1nc(C2=CCN(Cc3cccc4c3CN(C3CCC(=O)NC3=O)C4=S)CC2)c2ccsc2n1` (centres unmarked) [GT-08959, 3-(4-((4-(2-methylthieno[2,3-d]pyrimidin-4-yl)-3,6-dihydropyridin-1(2H)-yl)methyl)-1-thioxoisoindolin-2-yl)piperidine-2,6-dione], the “CK1α substrate protein remaining %” value [1] was “B (80%< substrate protein remaining %≤ 100%)”, the “IKZF 1 substrate protein remaining %” value [2] was “B (80%< substrate protein remaining %≤ 100%)” and the “IKZF2 substrate protein remaining %” value [3] was “B (80%< substrate protein remaining %≤ 100%)”. For the same compound, the “IKZF3 substrate protein remaining %” value [4] was “B (80%< substrate protein remaining %≤ 100%)”, the “Wee1 substrate protein remaining %” value [5] was “A (0% ≤ substrate protein remaining % ≤ 80%)” and the “GSPT1 substrate protein remaining %” value [6] was “B (80%< substrate protein remaining %≤ 100%)”. It also gave an inhibition at 0.5 µM [7] of 60 to 80% and an inhibition at 2 µM [7] of 80 to 100%.

— patent EP4745135A1 (Gluetacs Therapeutics (Shanghai) Co., Ltd., priority 2023, dated 2025)
